According to patent US11053204B2, “Pyrimidinyloxy benzene derivatives as herbicides” (FMC Corporation, priority 2015, dated 2021):

Legend:
Assay type in all cases: in vivo
rice (Oryza sativa) = assay: Test B flooded paddy test, plant response rating; details: 250 g ai/ha; Flood; scale of 0 to 100 where 0 is no effect and 100 is complete control; 13 to 15 days
Summary of the method: (§1)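 Flooded 3 cm over soil; compound into paddy water; depth kept constant. Greenhouse 13–15 d.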

[1] = test system: ducksalad (Heteranthera limosa); assay: Test B flooded paddy test, plant response rating; details: 250 g ai/ha; Flood; scale of 0 to 100 where 0 is no effect and 100 is complete control; 13 to 15 days
Summary of the method: as §1

[2] = test system: barnyardgrass (Echinochloa crus-galli); assay: Test B flooded paddy test, plant response rating; details: 250 g ai/ha; Flood; scale of 0 to 100 where 0 is no effect and 100 is complete control; 13 to 15 days
Summary of the method: as §1

[3] = test system: sedge, umbrella (small-flower umbrella sedge, Cyperus difformis); assay: Test B flooded paddy test, plant response rating; details: 250 g ai/ha; Flood; scale of 0 to 100 where 0 is no effect and 100 is complete control; 13 to 15 days
Summary of the method: as §1

[4] = test system: ragweed (common ragweed, Ambrosia elatior); assay: Test A postemergence, visual injury rating; details: 0 is no effect, 100 is complete control; for Ragweed plant response rating: 31 g ai/ha, 0 to 100 scale, approximately 10 days; for Ragweed plant response rating (0 to 100 scale): 125 g ai/ha
Summary of the method: (§2)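 Scoring: eye-based comparison with untreated controls, 0 for no effect through 100 for complete control, at about day 10. Treatments: directed soil spray preemergence; foliar spray postemergence on 2–10 cm plants at the one- to two-leaf stage. Medium: loam soil with sand.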

[5] = test system: galium (catchweed bedstraw, Galium aparine); assay: Test A postemergence, visual injury rating; details: 0 is no effect, 100 is complete control; for Galium plant response rating: 31 g ai/ha, 0 to 100 scale, approximately 10 days; for Galium plant response rating (0 to 100 scale): 125 g ai/ha
Summary of the method: as §2

[6] = test system: giant foxtail (Setaria faberii); assay: Test A postemergence, visual injury rating; details: 0 is no effect, 100 is complete control; for Foxtail, Giant plant response rating: 31 g ai/ha, 0 to 100 scale, approximately 10 days; for Foxtail, Giant plant response rating (0 to 100 scale): 125 g ai/ha
Summary of the method: as §2

corn (Zea mays) = assay: Test A postemergence, visual injury rating; details: 0 is no effect, 100 is complete control; for Corn plant response rating: 31 g ai/ha, 0 to 100 scale, approximately 10 days; for Corn plant response rating (0 to 100 scale): 125 g ai/ha
Summary of the method: as §2

[7] = test system: barnyardgrass (Echinochloa crus-galli); assay: Test A postemergence, visual injury rating; details: 0 is no effect, 100 is complete control; for Barnyardgrass plant response rating: 31 g ai/ha, 0 to 100 scale, approximately 10 days; for Barnyardgrass plant response rating (0 to 100 scale): 125 g ai/ha
Summary of the method: as §2

[8] = test system: wheat (Triticum aestivum); assay: Test A postemergence, visual injury rating; details: 0 is no effect, 100 is complete control; for Wheat plant response rating: 31 g ai/ha, 0 to 100 scale, approximately 10 days; for Wheat plant response rating (0 to 100 scale): 125 g ai/ha
Summary of the method: as §2

[9] = test system: Italian ryegrass (Lolium multiflorum); assay: Test A postemergence, visual injury rating; details: 0 is no effect, 100 is complete control; for Ryegrass, Italian plant response rating: 31 g ai/ha, 0 to 100 scale, approximately 10 days; for Ryegrass, Italian plant response rating (0 to 100 scale): 125 g ai/ha
Summary of the method: as §2

[10] = test system: blackgrass (Alopecurus myosuroides); assay: Test A postemergence, visual injury rating; details: 0 is no effect, 100 is complete control; for Blackgrass plant response rating: 31 g ai/ha, 0 to 100 scale, approximately 10 days; for Blackgrass plant response rating (0 to 100 scale): 125 g ai/ha
Summary of the method: as §2

kochia (Kochia scoparia) [11] = assay: Test A postemergence, visual injury rating; details: 0 is no effect, 100 is complete control; for Kochia plant response rating: 31 g ai/ha, 0 to 100 scale, approximately 10 days; for Kochia plant response rating (0 to 100 scale): 125 g ai/ha
Summary of the method: as §2

[12] = test system: pigweed (Amaranthus retroflexus); assay: Test A postemergence, visual injury rating; details: 0 is no effect, 100 is complete control; for Pigweed plant response rating: 31 g ai/ha, 0 to 100 scale, approximately 10 days; for Pigweed plant response rating (0 to 100 scale): 125 g ai/ha
Summary of the method: as §2

[13] = test system: ragweed (common ragweed, Ambrosia elatior); assay: Test A preemergence, visual injury rating; details: for Plant response rating, Ragweed: 31 g ai/ha, 0 to 100 scale, 0 no effect, 100 complete control; for Ragweed plant response rating: 125 g ai/ha, 0 to 100 scale (0 no effect, 100 complete control)
Summary of the method: as §2

[14] = test system: giant foxtail (Setaria faberii); assay: Test A preemergence, visual injury rating; details: for Plant response rating, Foxtail, Giant: 31 g ai/ha, 0 to 100 scale, 0 no effect, 100 complete control; for Foxtail, Giant plant response rating: 125 g ai/ha, 0 to 100 scale (0 no effect, 100 complete control)
Summary of the method: as §2

[15] = test system: barnyardgrass (Echinochloa crus-galli); assay: Test A preemergence, visual injury rating; details: for Plant response rating, Barnyardgrass: 31 g ai/ha, 0 to 100 scale, 0 no effect, 100 complete control; for Barnyardgrass plant response rating: 125 g ai/ha, 0 to 100 scale (0 no effect, 100 complete control)
Summary of the method: as §2

[16] = test system: Italian ryegrass (Lolium multiflorum); assay: Test A preemergence, visual injury rating; details: for Plant response rating, Ryegrass, Italian: 31 g ai/ha, 0 to 100 scale, 0 no effect, 100 complete control; for Ryegrass, Italian plant response rating: 125 g ai/ha, 0 to 100 scale (0 no effect, 100 complete control)
Summary of the method: as §2

kochia (Kochia scoparia) [17] = assay: Test A preemergence, visual injury rating; details: for Plant response rating, Kochia: 31 g ai/ha, 0 to 100 scale, 0 no effect, 100 complete control; for Kochia plant response rating: 125 g ai/ha, 0 to 100 scale (0 no effect, 100 complete control)
Summary of the method: as §2

[18] = test system: pigweed (Amaranthus retroflexus); assay: Test A preemergence, visual injury rating; details: for Plant response rating, Pigweed: 31 g ai/ha, 0 to 100 scale, 0 no effect, 100 complete control; for Pigweed plant response rating: 125 g ai/ha, 0 to 100 scale (0 no effect, 100 complete control)
Summary of the method: as §2

SMILES	Plant response rating, Rice (rice (Oryza sativa))	Plant response rating, Ducksalad [1]	Plant response rating, Barnyardgrass [2]	Plant response rating, Sedge, Umbrella [3]	Ragweed plant response rating [4]	Ragweed plant response rating (0 to 100 scale) [4]	Galium plant response rating [5]	Galium plant response rating (0 to 100 scale) [5]	Foxtail, Giant plant response rating [6]	Foxtail, Giant plant response rating (0 to 100 scale) [6]	Corn plant response rating (corn (Zea mays))	Corn plant response rating (0 to 100 scale) (corn (Zea mays))	Barnyardgrass plant response rating [7]	Barnyardgrass plant response rating (0 to 100 scale) [7]	Wheat plant response rating [8]	Wheat plant response rating (0 to 100 scale) [8]	Ryegrass, Italian plant response rating [9]	Ryegrass, Italian plant response rating (0 to 100 scale) [9]	Blackgrass plant response rating [10]	Blackgrass plant response rating (0 to 100 scale) [10]	other results
O=C(OC1CCCC1)c1c(Br)cccc1Oc1ncc(Cl)cn1 [Compound 44]	0	0	0	30	0	0	0	0	0	0	0	0	0	0	0	0	0	0	0	0	Kochia plant response rating (kochia (Kochia scoparia) [11]): 0; Kochia plant response rating (0 to 100 scale) (kochia (Kochia scoparia) [11]): 0; Pigweed plant response rating [12]: 0; Pigweed plant response rating (0 to 100 scale) [12]: 0; Plant response rating, Ragweed [13]: 0; Ragweed plant response rating [13]: 0; Plant response rating, Foxtail, Giant [14]: 0; Foxtail, Giant plant response rating [14]: 40; Plant response rating, Barnyardgrass [15]: 0; Barnyardgrass plant response rating [15]: 0; Plant response rating, Ryegrass, Italian [16]: 0; Ryegrass, Italian plant response rating [16]: 0; Plant response rating, Kochia (kochia (Kochia scoparia) [17]): 0; Kochia plant response rating (kochia (Kochia scoparia) [17]): 0; Plant response rating, Pigweed [18]: 0; Pigweed plant response rating [18]: 0
O=C(OCC(Cl)(Cl)Cl)c1c(Br)cccc1Oc1ncc(Cl)cn1 [Compound 45]	0	0	0	0	10	10	50	100	20	20	0	20	20	20	0	0	0	0	0	0	Kochia plant response rating (kochia (Kochia scoparia) [11]): 20; Kochia plant response rating (0 to 100 scale) (kochia (Kochia scoparia) [11]): 50; Pigweed plant response rating [12]: 80; Pigweed plant response rating (0 to 100 scale) [12]: 100; Plant response rating, Ragweed [13]: 0; Ragweed plant response rating [13]: 0; Plant response rating, Foxtail, Giant [14]: 0; Foxtail, Giant plant response rating [14]: 10; Plant response rating, Barnyardgrass [15]: 0; Barnyardgrass plant response rating [15]: 0; Plant response rating, Ryegrass, Italian [16]: 0; Ryegrass, Italian plant response rating [16]: 0; Plant response rating, Kochia (kochia (Kochia scoparia) [17]): 0; Kochia plant response rating (kochia (Kochia scoparia) [17]): 0; Plant response rating, Pigweed [18]: 0; Pigweed plant response rating [18]: 70
